# Source: patent US11739100B2, “2,3-dihydro-1h-imidazo{1,2-a}pyrimidin-5-one and this 1,2,3,4-tetrahydropyrimido{1,2-a}pyrimidin-6-one derivatives comprising a substituted morpholine, preparation thereof and pharmaceutical use thereof” (SANOFI, priority 2012, dated 2023)
# Molecular target: T1, recombinant Vps34 (Homo sapiens, UniProt Q8NEB9)
# T1 construct: purchased Invitrogen PV5126
# Assay: Phosphorylation of phosphatidylinositol (PI) by Vps34 in vitro, ADP detected by TR-FRET (HTRF Transcreener ADP)
# Assay type: biochemical
# Settings: 10 μM ATP, 55 μg/ml PI, approximately 3 nM Vps34, 1 hour at ambient temperature; absolute IC50, mean of two independent experiments; read-out: IC50 activity range
# T1 sequence (Q8NEB9 whole entry): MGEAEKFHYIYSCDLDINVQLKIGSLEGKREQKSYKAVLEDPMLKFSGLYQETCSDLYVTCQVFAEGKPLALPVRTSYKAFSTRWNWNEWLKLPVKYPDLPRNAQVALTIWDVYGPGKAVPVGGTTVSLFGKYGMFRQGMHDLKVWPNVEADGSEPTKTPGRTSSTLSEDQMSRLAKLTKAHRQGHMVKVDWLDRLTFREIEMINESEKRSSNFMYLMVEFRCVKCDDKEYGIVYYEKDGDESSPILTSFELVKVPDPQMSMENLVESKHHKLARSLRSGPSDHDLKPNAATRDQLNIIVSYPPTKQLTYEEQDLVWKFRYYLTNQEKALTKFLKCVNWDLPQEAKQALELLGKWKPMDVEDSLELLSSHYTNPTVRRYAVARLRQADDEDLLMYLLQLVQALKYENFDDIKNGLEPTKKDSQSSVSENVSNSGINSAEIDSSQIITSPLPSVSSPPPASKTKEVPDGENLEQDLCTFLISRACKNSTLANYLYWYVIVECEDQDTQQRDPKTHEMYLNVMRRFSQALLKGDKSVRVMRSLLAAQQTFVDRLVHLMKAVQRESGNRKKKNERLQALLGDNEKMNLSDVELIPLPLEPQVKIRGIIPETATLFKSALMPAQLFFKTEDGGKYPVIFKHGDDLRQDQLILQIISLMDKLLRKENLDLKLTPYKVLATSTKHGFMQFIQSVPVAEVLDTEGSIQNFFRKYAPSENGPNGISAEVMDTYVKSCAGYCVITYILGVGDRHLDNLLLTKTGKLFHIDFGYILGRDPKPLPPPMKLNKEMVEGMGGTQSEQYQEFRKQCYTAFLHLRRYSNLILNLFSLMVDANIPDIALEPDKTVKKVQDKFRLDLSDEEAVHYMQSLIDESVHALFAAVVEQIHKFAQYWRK
row,IC50,Structure (SMILES)
1,< 10 nM,"C[C@@H]1COCCN1c1nc2n(c(=O)c1F)[C@@H](C(F)(F)F)CCN2CC(=O)C1CCOCC1 [Example 132, (R)-3-Fluoro-2-((R)-3-methylmorpholin-4-yl)-9-[2-oxo-2-(tetrahydro-pyran-4-yl)ethyl]-6-trifluoromethyl-6,7,8,9-tetrahydro-pyrimido[1,2-a]-pyrimidin-4-one]"
2,< 10 nM,"CC(C)CC(=O)CN1c2nc(N3CCOC[C@H]3C)c(F)c(=O)n2CC[C@H]1C(F)(F)F [Example 280, (S)-3-Fluoro-2-((R)-3-methylmorpholin-4-yl)-9-(4-methyl-2-oxo-pentyl)-8-trifluoromethyl-6,7,8,9-tetrahydro-pyrimido[1,2-a]-pyrimidin-4-one]"
3,10 to 100 nM,"C[C@@H]1COCCN1c1cc(=O)n2c(n1)N(CC(=O)C1CCNCC1)[C@H](C(F)(F)F)CC2 [Example 265, (S)-2-((R)-3-Methyl-morpholin-4-yl)-9-(2-oxo-2-piperidin-4-yl-ethyl)-8-trifluoromethyl-6,7,8,9-tetrahydro-pyrimido[1,2-a]-pyrimidin-4-one]"
4,< 10 nM,"C[C@@H]1COCCN1c1cc(=O)n2c(n1)N(Cc1ccnn1C(F)F)[C@](C)(C(F)(F)F)CC2 [Example 214, (S)-9-(2-Difluoromethyl-2H-pyrazol-3-ylmethyl)-8-methyl-2-((R)-3-methylmorpholin-4-yl)-8-trifluoromethyl-6,7,8,9-tetrahydro-pyrimido[1,2-a]-pyrimidin-4-one]"
5,< 10 nM,"C[C@@H]1COCCN1c1cc(=O)n2c(n1)N(CC(=O)C1CCOCC1)[C@](C)(C(F)(F)F)C2 [Example 190, (S)-2-Methyl-7-((R)-3-methylmorpholin-4-yl)-1-[2-oxo-2-(tetrahydro-pyran-4-yl)ethyl]-2-trifluoromethyl-2,3-dihydro-1H-imidazo[1,2-a]-pyrimidin-5-one]"
6,< 10 nM,"CCC(=O)CN1c2nc(N3CCOC[C@H]3C)c(F)c(=O)n2CC[C@H]1C(F)(F)F [Example 22, (S)-3-Fluoro-2-((R)-3-methylmorpholin-4-yl)-9-(2-oxobutyl)-8-trifluoromethyl-6,7,8,9-tetrahydro-pyrimido[1,2-a]-pyrimidin-4-one]"
7,< 10 nM,"C[C@@H]1COCCN1c1nc2n(c(=O)c1F)C[C@@](C)(C(F)(F)F)N2Cc1ccnc(Cl)c1 [Example 184, (S)-1-(2-Chloro-pyridin-4-ylmethyl)-6-fluoro-2-methyl-7-((R)-3-methylmorpholin-4-yl)-2-trifluoromethyl-2,3-dihydro-1H-imidazo[1,2-a]-pyrimidin-5-one]"
8,< 10 nM,"C[C@@H]1COCCN1c1cc(=O)n2c(n1)N(CC(=O)c1ccccn1)[C@H](C(F)(F)F)CC2 [Example 1, (S)-2-((R)-3-Methyl-morpholin-4-yl)-9-(2-oxo-2-pyridin-2-yl-ethyl)-8-trifluoromethyl-6,7,8,9-tetrahydro-pyrimido[1,2-a]-pyrimidin-4-one]"
9,< 10 nM,"C[C@@H]1COCCN1c1cc(=O)n2c(n1)N(CC(=O)c1nccs1)[C@H](C(F)(F)F)CC2 [Example 242, (S)-2-((R)-3-Methyl-morpholin-4-yl)-9-(2-oxo-2-thiazol-2-yl-ethyl)-8-trifluoromethyl-6,7,8,9-tetrahydro-pyrimido[1,2-a]-pyrimidin-4-one]"
10,< 10 nM,"CCC(C)C(=O)CN1c2nc(N3CCOC[C@H]3C)cc(=O)n2CC[C@H]1C(F)(F)F (stereo partly drawn) [Example 291, (S)-2-((R)-3-Methyl-morpholin-4-yl)-9-(3-methyl-2-oxo-pentyl)-8-trifluoromethyl-6,7,8,9-tetrahydro-pyrimido[1,2-a]-pyrimidin-4-one]"
11,< 10 nM,"Cc1nocc1CN1CC[C@H](C(F)(F)F)n2c1nc(N1CCOC[C@H]1C)cc2=O [Example 143, (R)-9-(3-Methyl-isoxazol-4-ylmethyl)-2-((R)-3-methyl-morpholin-4-yl)-6-trifluoromethyl-6,7,8,9-tetrahydro-pyrimido[1,2-a]-pyrimidin-4-one]"
12,< 10 nM,"C[C@@H]1COCCN1c1nc2n(c(=O)c1F)CC[C@@H](C(F)(F)F)N2Cc1cccnc1F [Example 58, (S)-3-Fluoro-9-(2-fluoropyridin-3-yl-methyl)-2-((R)-3-methylmorpholin-4-yl)-8-trifluoromethyl-6,7,8,9-tetrahydro-pyrimido[1,2-a]-pyrimidin-4-one]"
13,> 100 nM,"O=c1cc(N2CCOC(CF)C2)nc2n1CC[C@@H](C(F)(F)F)N2Cc1ccccc1 (stereo partly drawn) [Example 193, (S)-9-Benzyl-2-(2-fluoromethyl-morpholin-4-yl)-8-trifluoromethyl-6,7,8,9-tetrahydro-pyrimido[1,2-a]-pyrimidin-4-one]"
14,< 10 nM,"CCC(=O)CN1c2nc(N3CCOC[C@H]3C)cc(=O)n2CC[C@H]1C(F)(F)F [Example 16, (S)-2-((R)-3-Methyl-morpholin-4-yl)-9-(2-oxobutyl)-8-trifluoromethyl-6,7,8,9-tetrahydro-pyrimido[1,2-a]-pyrimidin-4-one]"
15,< 10 nM,"C[C@@H]1COCCN1c1cc(=O)n2c(n1)N(Cc1ccon1)[C@H](C(F)(F)F)CC2 [Example 33, (S)-9-Isoxazol-3-yl-methyl-2-((R)-3-methylmorpholin-4-yl)-8-trifluoromethyl-6,7,8,9-tetrahydro-pyrimido[1,2-a]-pyrimidin-4-one]"
16,10 to 100 nM,"Cc1ccc(S(=O)(=O)N2c3nc(N4CCOC[C@H]4C)cc(=O)n3CC[C@H]2C(F)(F)F)cc1 [Example 104, (S)-2-((R)-3-Methyl-morpholin-4-yl)-9-(toluene-4-sulfonyl)-8-trifluoromethyl-6,7,8,9-tetrahydro-pyrimido[1,2-a]-pyrimidin-4-one]"
17,< 10 nM,"C[C@@H]1COCCN1c1cc(=O)n2c(n1)N(CC(=O)c1ccccn1)[C@](C)(C(F)(F)F)C2 [Example 179, (S)-2-Methyl-7-((R)-3-methylmorpholin-4-yl)-1-(2-oxo-2-pyridin-2-ylethyl)-2-trifluoromethyl-2,3-dihydro-1H-imidazo[1,2-a]-pyrimidin-5-one]"
18,< 10 nM,"C[C@@H]1COC[C@@H](C)N1c1cc(=O)n2c(n1)N(Cc1ccon1)[C@H](C(F)(F)F)CC2 [Example 313, (S)-2-((3R,5R)-3,5-Dimethylmorpholin-4-yl)-9-isoxazol-3-yl-methyl-8-trifluoromethyl-6,7,8,9-tetrahydropyrimido-[1,2-a]pyrimidin-4-one]"
19,< 10 nM,"CC(C)c1nc(CN2c3nc(N4CCOC[C@H]4C)cc(=O)n3CC[C@H]2C(F)(F)F)no1 [Example 201, (S)-9-(5-Isopropyl-[1,2,4]oxadiazol-3-yl-methyl)-2-((R)-3-methylmorpholin-4-yl)-8-trifluoromethyl-6,7,8,9-tetrahydro-pyrimido[1,2-a]-pyrimidin-4-one]"
20,10 to 100 nM,"C[C@@H]1COCCN1c1nc2n(c(=O)c1F)CC[C@@H](C(F)(F)F)N2CC(=O)N1CCOCC1 [Example 235, (S)-3-Fluoro-2-((R)-3-methylmorpholin-4-yl)-9-(2-morpholin-4-yl-2-oxoethyl)-8-trifluoromethyl-6,7,8,9-tetrahydro-pyrimido[1,2-a]-pyrimidin-4-one]"
21,< 10 nM,"C[C@@H]1COCCN1c1nc2n(c(=O)c1F)CC[C@@H](C(F)(F)F)N2CC(F)C1CC1 (single isomer, unassigned) [Example 331]"
22,< 10 nM,"COC(=O)CN1c2nc(N3CCOC[C@H]3C)c(F)c(=O)n2CC[C@H]1C(F)(F)F [Example 283, [(S)-7-Fluoro-8-((R)-3-methylmorpholin-4-yl)-6-oxo-2-trifluoromethyl-3,4-dihydro-2H,6H-pyrimido[1,2-a]-pyrimidin-1-yl]acetic acid methyl ester]"
23,< 10 nM,"Cc1nc(CN2c3nc(N4CCOC[C@H]4C)c(F)c(=O)n3C[C@@]2(C)C(F)(F)F)no1 [Example 30, (S)-6-Fluoro-2-methyl-7-((R)-3-methyl-morpholin-4-yl)-1-(5-methyl-[1,2,4]oxadiazol-3-yl-methyl)-2-trifluoromethyl-2,3-dihydro-1H-imidazo[1,2-a]-pyrimidin-5-one]"
24,< 10 nM,"C[C@@H]1COCCN1c1cc(=O)n2c(n1)N(CC(=O)c1ccnc(Cl)c1)[C@H](C(F)(F)F)CC2 [Example 10, (S)-9-[2-(2-Chloro-pyridin-4-yl)-2-oxo-ethyl]-2-((R)-3-methyl-morpholin-4-yl)-8-trifluoromethyl-6,7,8,9-tetrahydro-pyrimido[1,2-a]-pyrimidin-4-one]"
25,< 10 nM,"CCC(CC)C(=O)CN1c2nc(N3CCOC[C@H]3C)cc(=O)n2CC[C@H]1C(F)(F)F [Example 281, (S)-9-(3-Ethyl-2-oxo-pentyl)-2-((R)-3-methylmorpholin-4-yl)-8-trifluoromethyl-6,7,8,9-tetrahydro-pyrimido[1,2-a]-pyrimidin-4-one]"
26,< 10 nM,"C[C@@H]1COCCN1c1nc2n(c(=O)c1F)[C@@H](C(F)(F)F)CCN2Cc1nc(C2CC2)no1 [Example 147, (R)-9-(3-Cyclopropyl-[1,2,4]oxadiazol-5-yl-methyl)-3-fluoro-2-((R)-3-methyl-morpholin-4-yl)-6-trifluoromethyl-6,7,8,9-tetrahydro-pyrimido[1,2-a]-pyrimidin-4-one]"
27,< 10 nM,"Cc1noc(CN2c3nc(N4CCOC[C@H]4C)c(F)c(=O)n3CC[C@H]2C(F)(F)F)n1 [Example 19, (S)-3-Fluoro-2-((R)-3-methylmorpholin-4-yl)-9-(3-methyl-[1,2,4]oxadiazol-5-yl-methyl)-8-trifluoromethyl-6,7,8,9-tetrahydro-pyrimido[1,2-a]-pyrimidin-4-one]"
28,< 10 nM,"C[C@@H]1COCCN1c1cc(=O)n2c(n1)N(CC(=O)C1CC1)[C@](C)(C(F)(F)F)C2 [Example 31, (S)-1-(2-Cyclopropyl-2-oxoethyl)-2-methyl-7-((R)-3-methyl-morpholin-4-yl)-2-trifluoromethyl-2,3-dihydro-1H-imidazo[1,2-a]-pyrimidin-5-one]"
29,< 10 nM,"C[C@@H]1COCCN1c1cc(=O)n2c(n1)N(CC(=O)C1CCCC1)[C@H](C(F)(F)F)CC2 [Example 244, (S)-9-(2-Cyclopentyl-2-oxoethyl)-2-((R)-3-methylmorpholin-4-yl)-8-trifluoromethyl-6,7,8,9-tetrahydro-pyrimido[1,2-a]-pyrimidin-4-one]"
